As a reminder, the IC50 is the concentration needed to halve the response being measured. Usually ΔTm stands for the change in melting temperature against a reference sample. By logP is commonly meant the decadic logarithm of the partition coefficient of the neutral form, usually between octanol and water. A high value points to higher lipophilicity.

The source made the active and inactive calls. The calls are words filed in the database; no cut-off is given here.

Data set [1] is described as follows: Inhibition of NC-induced HIV1 TAR/cTAR annealing assessed as change in melting temperature preincubated for 15 mins before NC addition measured after 15 mins by gel electrophoresis. The arrangement: species or system Human immunodeficiency virus 1.
The subject of data set [2] is Human immunodeficiency virus 1. Nature of the data set: Binding affinity to HIV1 cTAR DNA assessed as change in melting temperature by […].
Data set [3] in a line: Inhibition of NC-induced HIV1 cTAR destabilization assessed as change in melting temperature by fluorescence quenching assay. The arrangement: species or system Human immunodeficiency virus 1.
The nature of data set [4]: Inhibition of NC-induced HIV1 TAR destabilization assessed as change in melting temperature by fluorescence quenching assay. Also on record: species or system Human immunodeficiency virus 1.
For data set [5], the system named is Nucleic Acid. Nature of the data set: Binding affinity to HIV1 TAR RNA assessed as change in melting temperature by […]. In kind it is nucleic-acid assay. The note with it: Human immunodeficiency virus 1.
The test system of data set [6] is Nucleic Acid. Nature of the data set: Binding affinity to HIV1 TAR/cTAR RNA/DNA duplex assessed as change in melting temperature by […]. The format is nucleic-acid assay. The note with it: Human immunodeficiency virus 1.
Data set [7] in a line: Octanol-water partition co-efficient, log P of the compound by shake flask method. In kind it is physicochemical.
For data set [8], the system named is Human immunodeficiency virus 1. Nature of the data set: Antiviral activity against HIV1 infected in human Jurkat cells assessed as inhibition of viral replication after 3 to 4 days. The format is functional, organism-based.
Data set [9] relates to Jurkat. Nature of the data set: Cytotoxicity against human Jurkat cells up to 100 uM after 72 hrs by MTT assay. In kind it is cell-based. Background: Formazan colour is commonly taken as a measure of viable cells.
Data set [10] deals with Jurkat. Nature of the data set: Drug uptake in human Jurkat cells at 100 uM after 3 hrs by spectrophotometry. In kind it is ADME, cell-based.
For data set [11], the system named is Human immunodeficiency virus 1. Nature of the data set: Antiviral activity against HIV1 infected in human Jurkat cells assessed as inhibition of viral replication by CAT gene-based transcomplementation assay. In kind it is functional, organism-based.

For `NCCC(N)C(=O)NCCC(=O)Nc1ccc2c(c1)C(=O)c1ccc(NC(=O)CCNC(=O)C(N)CCN)cc1C2=O.O=C(O)C(F)(F)F.O=C(O)C(F)(F)F.O=C(O)C(F)(F)F.O=C(O)C(F)(F)F` (stereo unspecified), the IC50 in data set [1] was found to be 44.1 µM; in [3], 7.1 µM; in data set [4], 6.3 µM. For the same compound, the figures for the ΔTm in data set [2], in data set [5] and in data set [6] were 10.5 °C, 8.95 °C and 1.77 °C, respectively. The logP in data set [7] was -2.55. Further, the result in data set [8] was inactive. In data set [9], the Activity entry is reported as “Non-toxic”.

On to `Nc1ccc(CC(N)C(=O)NCCC(=O)Nc2ccc3c(c2)C(=O)c2ccc(NC(=O)CCNC(=O)C(N)Cc4ccc(N)cc4)cc2C3=O)cc1.O=C(O)C(F)(F)F.O=C(O)C(F)(F)F.O=C(O)C(F)(F)F.O=C(O)C(F)(F)F` (stereo unspecified), for which the half-maximal inhibitory concentration (IC50) in [1] was 42.3 µM. The same compound registered a logP in data set [7] of -2.51. Also, the outcome in data set [8] was inactive. Also, the Activity result in data set [9] is “Non-toxic”.

`NCCCCC(N)C(=O)NCCC(=O)Nc1ccc2c(c1)C(=O)c1ccc(NC(=O)CCNC(=O)C(N)CCCCN)cc1C2=O` (stereo unspecified): the Drug uptake entry in data set [10] is “Not Active”. Besides, the IC50 in [1] is 44.5 µM; in data set [3], 3.84 µM; in [4] it was 3.71 µM. The ΔTm in [2] was determined as 2.14 °C; in [5], 2.88 °C; in data set [6] it was 1.12 °C.

For the compound `NCCCC(N)C(=O)NCCC(=O)Nc1ccc2c(c1)C(=O)c1ccc(NC(=O)CCNC(=O)C(N)CCCN)cc1C2=O.O=C(O)C(F)(F)F.O=C(O)C(F)(F)F.O=C(O)C(F)(F)F.O=C(O)C(F)(F)F` (stereo unspecified), the values for the IC50 in [1], in data set [3] and in [4] were 21.9 µM, 2.04 µM and 3.2 µM, respectively. In addition, the ΔTm in data set [2] worked out at 13.8 °C; in [5], 16.2 °C; in [6], 3.1 °C. Besides, in data set [11], the outcome was inactive. Besides, in data set [7], the logP was -2.51. Moreover, in data set [9], the Activity entry was “Non-toxic”.

For `O=C(CCNC(=O)C1CCNCC1)Nc1ccc2c(c1)C(=O)c1ccc(NC(=O)CCNC(=O)C3CCNCC3)cc1C2=O.O=C(O)C(F)(F)F.O=C(O)C(F)(F)F`, the IC50 in [1] turned out to be 95.8 µM; in [3] it was 36.3 µM; in data set [4], 42.9 µM. Besides, the values for the ΔTm in data set [2], in data set [5] and in data set [6] were 1.11 °C, 1.49 °C and 0.65 °C, respectively. The log partition coefficient (logP) in data set [7] was -2.91. The outcome in [8] was inactive. Besides, the Activity entry in data set [9] is “Non-toxic”.

As for `NCC1CCC(C(=O)NCCC(=O)Nc2ccc3c(c2)C(=O)c2ccc(NC(=O)CCNC(=O)C4CCC(CN)CC4)cc2C3=O)CC1.O=C(O)C(F)(F)F.O=C(O)C(F)(F)F` (stereo unspecified), the ΔTm was found to be 1.86 °C in [2], 0.97 °C in data set [5] and 0.84 °C in data set [6]. For the same compound, the IC50 in data set [3] is 13.7 µM; in [4], 17.6 µM. In data set [7], this compound gave a logP of -2.31. Also, the result in data set [8] was inactive. For the same compound, in [9], the Activity entry is recorded as “Non-toxic”.

`NCC(N)C(=O)NCCC(=O)Nc1ccc2c(c1)C(=O)c1ccc(NC(=O)CCNC(=O)C(N)CN)cc1C2=O.O=C(O)C(F)(F)F.O=C(O)C(F)(F)F.O=C(O)C(F)(F)F.O=C(O)C(F)(F)F` (stereo unspecified): the results for the thermal shift (ΔTm) in [2], in data set [5] and in data set [6] were 1.92 °C, 2.38 °C and 0.28 °C, respectively. The IC50 was 22.8 µM in data set [3] and 21.4 µM in data set [4]. Besides, the log partition coefficient (logP) in [7] was -2.56. For the same compound, the outcome in [8] was inactive. Further, in [9], the Activity entry is reported as “Non-toxic”.

Regarding `NC1(C(=O)NCCC(=O)Nc2ccc3c(c2)C(=O)c2ccc(NC(=O)CCNC(=O)C4(N)CCNCC4)cc2C3=O)CCNCC1.O=C(O)C(F)(F)F.O=C(O)C(F)(F)F.O=C(O)C(F)(F)F.O=C(O)C(F)(F)F`, the thermal shift (ΔTm) in [2] amounted to 2.14 °C; in data set [5], 2.23 °C; in data set [6], 1.12 °C. The IC50 came to 15.4 µM in data set [3] and 13.8 µM in [4]. This compound yielded a logP in data set [7] of -2.91. Further, the outcome in [8] was inactive. Further, the Activity entry in data set [9] is listed as “Non-toxic”.

Regarding `NCCC(=O)NCCC(=O)Nc1ccc2c(c1)C(=O)c1ccc(NC(=O)CCNC(=O)CCN)cc1C2=O.O=C(O)C(F)(F)F.O=C(O)C(F)(F)F`, the IC50 worked out at 76.8 µM in [1], 11.8 µM in [3] and 10 µM in [4]. For the same compound, the ΔTm in [2] came out at 2.14 °C; in [5], 2.79 °C; in [6] it was 1.12 °C. This compound also yielded a logP in data set [7] of -2.98. Besides, the result in data set [8] was inactive. Besides, the Activity result in data set [9] is recorded as “Non-toxic”.

For the origin of these results see ChEMBL document CHEMBL3132768, “Design, synthesis and biological evaluation of TAR and cTAR binders as HIV-1 nucleocapsid inhibitors” (Medchemcomm, 2013).
